The values that follow come from ChEMBL document CHEMBL1201862, “PubChem BioAssay data set” (2004).

One experiment has as its system CHO-K1. Kind of experiment: Counterscreen for antagonists of the orexin 1 receptor (OX1R; HCRTR1): Homogeneous time resolved fluorescence (HTRF)-based cell-based dose response assay to identify antagonists of the parental CHO-K1 cell line. [Related pubchem assays (depositor defined):AID434989, AID435008, AID463079, AID485270, AID492963, AID492964, AID492965, AID493232, AID504699, AID504701]. Conditions: Cricetulus griseus. The experiment is classed as functional.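 Also: potency for inhibition of ATP-stimulated IP1 production as antagonists.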

Experiment [1] addresses Serine/threonine-protein phosphatase PP1-alpha catalytic subunit (Homo sapiens, UniProt P62136). Kind of experiment: PP1 phosphatase inhibitors, dose response, biochemical, fluorescence (AID 2394).
For the next experiment, the target named is SUMO-activating enzyme (Homo sapiens, UniProt Q9UBT2). The experiment can be described thus: inhibitors of in vitro SUMOylation cascade, primary screen, biochemical, HTRF, uHTS (AID 2006). In kind it is protein-complex assay. In general terms: In TR-FRET formats the signal depends on donor and acceptor labels being close together.
The target of experiment [2] is Lysine-specific demethylase 4C (Homo sapiens, UniProt Q9H3R0). The experiment can be described thus: GASC-1 (JMJD2C) histone demethylase inhibitors, dose response, biochemical, DELFIA europium, cherry-picked samples (AID 488835). In kind it is functional.
Experiment [3] is described as follows: microbe, parasite or virus in culture. In kind it is functional. The note with it: Mycobacterium tuberculosis.
Experiment [4] concerns the target T1, Apoptotic protease-activating factor 1 (Homo sapiens, UniProt O14727).
T1 sequence (O14727 whole entry): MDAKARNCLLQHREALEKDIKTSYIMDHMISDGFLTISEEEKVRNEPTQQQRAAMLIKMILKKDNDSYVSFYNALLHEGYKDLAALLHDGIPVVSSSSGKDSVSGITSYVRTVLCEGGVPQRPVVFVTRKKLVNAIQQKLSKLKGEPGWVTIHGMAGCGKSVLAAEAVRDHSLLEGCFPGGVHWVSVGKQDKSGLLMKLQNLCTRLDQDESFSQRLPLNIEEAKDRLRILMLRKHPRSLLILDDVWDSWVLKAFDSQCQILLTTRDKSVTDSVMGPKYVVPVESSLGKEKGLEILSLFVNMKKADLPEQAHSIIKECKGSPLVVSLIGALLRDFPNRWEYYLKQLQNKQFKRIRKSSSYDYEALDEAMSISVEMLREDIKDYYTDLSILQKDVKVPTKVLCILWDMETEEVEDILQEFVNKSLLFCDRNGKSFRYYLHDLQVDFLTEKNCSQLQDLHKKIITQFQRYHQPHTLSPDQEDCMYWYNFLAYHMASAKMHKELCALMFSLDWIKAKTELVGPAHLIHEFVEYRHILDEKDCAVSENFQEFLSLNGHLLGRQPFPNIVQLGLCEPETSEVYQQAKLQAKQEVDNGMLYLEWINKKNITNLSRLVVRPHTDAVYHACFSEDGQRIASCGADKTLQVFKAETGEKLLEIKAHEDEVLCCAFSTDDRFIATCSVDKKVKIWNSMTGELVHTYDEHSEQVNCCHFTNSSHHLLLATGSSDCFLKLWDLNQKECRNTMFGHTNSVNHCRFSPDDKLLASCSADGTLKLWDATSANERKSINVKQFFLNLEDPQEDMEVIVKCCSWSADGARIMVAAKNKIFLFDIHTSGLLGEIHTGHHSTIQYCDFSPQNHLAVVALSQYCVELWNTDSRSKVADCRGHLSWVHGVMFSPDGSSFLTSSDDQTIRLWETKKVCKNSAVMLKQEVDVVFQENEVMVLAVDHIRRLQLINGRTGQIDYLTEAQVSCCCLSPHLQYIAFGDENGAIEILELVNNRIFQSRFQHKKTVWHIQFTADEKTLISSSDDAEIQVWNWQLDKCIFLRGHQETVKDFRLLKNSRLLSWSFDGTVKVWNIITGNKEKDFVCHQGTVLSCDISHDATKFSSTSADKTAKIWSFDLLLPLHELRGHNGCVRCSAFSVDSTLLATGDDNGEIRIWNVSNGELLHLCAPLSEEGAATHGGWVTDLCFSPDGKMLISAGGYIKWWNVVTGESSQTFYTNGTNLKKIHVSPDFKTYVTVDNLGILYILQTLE
The experiment is classed as functional.

A further experiment addresses Wee1-like protein kinase (Homo sapiens, UniProt P30291). The experiment can be described thus: Dose Response Cell-based Assay for Inhibitors of Wee1 Degradation. [Related pubchem assays: 1410, 1321 ]. The experiment is classed as functional.
For experiment [5], the target named is Endoribonuclease toxin MazF (Escherichia coli K-12, UniProt P0AE70). The experiment can be described thus: MazF toxin RNase activators, dose response, biochemical, fluorescence, single-stranded RNA substrate, uHTS hits (AID 588481). The experiment is classed as functional.
Another experiment has as its system BJ. Kind of experiment: cytotoxicity toward BJ-TERT fibroblasts, dose response, cell-based, RAS-independent, luminescence (AID 1933). Conditions: Homo sapiens. In kind it is functional.
The nature of a further experiment: cells. The experiment is classed as functional, cell-based.
The nature of experiment [6]: cytotoxicity toward DRD oncogenic fibroblasts, dose response, cell-based, non-viral oncogenic, luminescence (AID 1934). The note with it: Homo sapiens. In kind it is functional.
A short description of experiment [7]: Counterscreen for AddAB inhibitors: absorbance-based bacterial cell-based high throughput dose response assay for inhibitors of bacterial viability. [Related pubchem assays (depositor defined):AID435030, AID449728, AID449731, AID488942, AID488955, AID488956]. In kind it is functional. For orientation: The purpose of a counterscreen is to sort out artefacts and off-target activity.

Experiment [8] has as its system HEK293. Kind of experiment: cytotoxicity in HEK293T NF-kB-Luc cells, SAR follow-up, cytotoxicity control for NF-kB activator project, cell-based, resazurin fluorescence (AID 493251). The experiment is classed as functional. The note with it: Homo sapiens. (The colour change of resazurin is a common sign of viable cells or microbes.)
Experiment [9] relates to HEK293. Kind of experiment: SAR Analysis of small molecule inhibitors of T-cell specific antigen receptor-induced NF-kB activation in a HEK-293T cell line using a luminescence assay - Set 2. [Related pubchem assays (depositor defined):AID435003, AID435012, AID489026]. Conditions: Homo sapiens. In kind it is functional, cell-based.
The target in experiment [10] is Heat shock cognate 71 kDa protein (Homo sapiens, UniProt P11142). Kind of experiment: Hsc70 inhibitors, probe displacement, primary screen, biochemical, fluorescence polarization (AID 568).
The target of experiment [11] is Induced myeloid leukemia cell differentiation protein Mcl-1 (Homo sapiens, UniProt Q07820). The experiment is classed as functional.
Experiment [12] concerns the target T2, Small ubiquitin-related modifier 2 (Homo sapiens, UniProt P61956). Kind of experiment: SUMO2–SIM peptide binding inhibitors, dose response, selectivity assay for SUMO1 interaction inhibitor project, biochemical, fluorescence polarization, uHTS hits (AID 624385). In kind it is functional. The note with it: read-out: IC50_Mean.
For experiment [13], the target named is T2, Small ubiquitin-related modifier 2. Kind of experiment: inhibitors of SUMO2 protein-protein interaction, dose response, selectivity assay for SUMO1 interaction inhibitor project, biochemical, FRET, human SUMO2, uHTS hits (AID 624384). In kind it is functional. The note with it: read-out: IC50_Mean.
A short description of experiment [14]: SNU-C1 cell viability reduction, dose response, CellTiter-Glo luminescence (AID 1117323). The experiment is classed as functional, cell-based.
Experiment [15] in a line: cytotoxicity toward Colo320 cells – cell-based, CellTiter-Glo luminescence, IC50, dose response (AID 1117334). In kind it is functional. Conditions: COLO 320.
Experiment [16] can be described thus: cytotoxicity toward HT-29 cells – cell-based, CellTiter-Glo luminescence, IC50, dose response (AID 1117330). In kind it is functional.

Molecules are shown by their SMILES. The source made the active and inactive calls. Bounds are passed on as bounds.

T2 sequence (P61956 whole entry): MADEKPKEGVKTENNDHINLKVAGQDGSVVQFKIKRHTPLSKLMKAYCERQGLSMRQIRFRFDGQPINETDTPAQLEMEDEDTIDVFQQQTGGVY
Sequence of SUMO-activating enzyme (Q9UBE0 whole entry): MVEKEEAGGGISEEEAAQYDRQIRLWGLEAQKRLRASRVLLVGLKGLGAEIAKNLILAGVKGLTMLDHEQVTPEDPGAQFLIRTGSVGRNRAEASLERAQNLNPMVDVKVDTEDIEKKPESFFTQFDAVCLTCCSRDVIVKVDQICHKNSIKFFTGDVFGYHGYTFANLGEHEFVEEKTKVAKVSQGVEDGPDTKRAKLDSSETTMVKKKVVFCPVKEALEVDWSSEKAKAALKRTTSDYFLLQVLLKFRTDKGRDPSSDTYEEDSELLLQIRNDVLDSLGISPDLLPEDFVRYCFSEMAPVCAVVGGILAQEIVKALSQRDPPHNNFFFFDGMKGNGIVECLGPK
Sequence of SUMO-activating enzyme (Q9UBT2 whole entry): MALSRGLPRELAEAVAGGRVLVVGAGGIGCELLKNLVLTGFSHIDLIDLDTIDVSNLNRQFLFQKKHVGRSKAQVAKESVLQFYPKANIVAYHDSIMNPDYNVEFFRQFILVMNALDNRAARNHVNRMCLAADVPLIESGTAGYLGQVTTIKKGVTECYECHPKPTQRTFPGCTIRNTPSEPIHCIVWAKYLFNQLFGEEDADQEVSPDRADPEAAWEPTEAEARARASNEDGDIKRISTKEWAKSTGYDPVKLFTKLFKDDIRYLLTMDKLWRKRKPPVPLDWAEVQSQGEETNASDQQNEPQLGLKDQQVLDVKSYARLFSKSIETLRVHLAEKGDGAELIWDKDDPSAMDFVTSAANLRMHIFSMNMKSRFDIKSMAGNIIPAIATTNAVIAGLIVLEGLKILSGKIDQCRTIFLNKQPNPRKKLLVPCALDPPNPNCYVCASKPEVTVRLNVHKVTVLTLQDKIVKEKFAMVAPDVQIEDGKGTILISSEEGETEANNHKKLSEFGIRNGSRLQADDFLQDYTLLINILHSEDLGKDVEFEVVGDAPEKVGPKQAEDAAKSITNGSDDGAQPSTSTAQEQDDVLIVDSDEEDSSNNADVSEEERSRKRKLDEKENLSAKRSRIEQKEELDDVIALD
Sequence of Wee1-like protein kinase (P30291 whole entry): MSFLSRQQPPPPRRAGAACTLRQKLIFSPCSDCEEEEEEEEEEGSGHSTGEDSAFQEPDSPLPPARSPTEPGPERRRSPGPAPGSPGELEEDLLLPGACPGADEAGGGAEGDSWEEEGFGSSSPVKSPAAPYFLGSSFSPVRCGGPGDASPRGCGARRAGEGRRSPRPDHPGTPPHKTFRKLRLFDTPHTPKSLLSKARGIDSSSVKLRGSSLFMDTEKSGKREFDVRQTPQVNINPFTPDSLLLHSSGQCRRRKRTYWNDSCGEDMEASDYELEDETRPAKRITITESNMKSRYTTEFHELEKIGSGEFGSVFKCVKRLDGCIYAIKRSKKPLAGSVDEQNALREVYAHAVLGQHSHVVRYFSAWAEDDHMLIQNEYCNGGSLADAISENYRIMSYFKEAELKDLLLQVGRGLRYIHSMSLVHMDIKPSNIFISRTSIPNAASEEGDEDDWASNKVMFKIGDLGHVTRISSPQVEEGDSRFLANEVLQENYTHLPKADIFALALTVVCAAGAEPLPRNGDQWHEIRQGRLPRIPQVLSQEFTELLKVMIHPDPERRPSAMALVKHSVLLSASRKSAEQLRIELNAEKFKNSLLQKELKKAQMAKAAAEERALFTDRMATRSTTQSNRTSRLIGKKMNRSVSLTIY
Sequence of Heat shock cognate 71 kDa protein (P11142 whole entry): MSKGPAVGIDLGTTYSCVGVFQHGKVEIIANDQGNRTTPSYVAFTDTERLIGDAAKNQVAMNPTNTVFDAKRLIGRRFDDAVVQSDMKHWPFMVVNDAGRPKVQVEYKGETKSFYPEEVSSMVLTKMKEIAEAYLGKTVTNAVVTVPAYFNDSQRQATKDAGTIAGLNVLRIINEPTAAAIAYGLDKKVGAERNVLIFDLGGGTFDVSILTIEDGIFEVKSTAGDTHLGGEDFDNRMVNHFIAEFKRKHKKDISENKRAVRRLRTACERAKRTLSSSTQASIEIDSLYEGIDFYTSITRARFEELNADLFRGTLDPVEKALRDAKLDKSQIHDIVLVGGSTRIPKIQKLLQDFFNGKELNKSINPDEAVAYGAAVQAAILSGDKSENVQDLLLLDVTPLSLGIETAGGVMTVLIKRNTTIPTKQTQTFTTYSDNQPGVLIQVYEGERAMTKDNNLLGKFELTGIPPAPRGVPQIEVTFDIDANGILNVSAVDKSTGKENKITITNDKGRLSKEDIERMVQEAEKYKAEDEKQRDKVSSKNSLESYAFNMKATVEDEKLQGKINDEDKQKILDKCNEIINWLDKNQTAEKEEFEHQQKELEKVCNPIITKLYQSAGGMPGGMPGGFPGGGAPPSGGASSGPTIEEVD
Sequence of Induced myeloid leukemia cell differentiation protein Mcl-1 (Q07820 whole entry): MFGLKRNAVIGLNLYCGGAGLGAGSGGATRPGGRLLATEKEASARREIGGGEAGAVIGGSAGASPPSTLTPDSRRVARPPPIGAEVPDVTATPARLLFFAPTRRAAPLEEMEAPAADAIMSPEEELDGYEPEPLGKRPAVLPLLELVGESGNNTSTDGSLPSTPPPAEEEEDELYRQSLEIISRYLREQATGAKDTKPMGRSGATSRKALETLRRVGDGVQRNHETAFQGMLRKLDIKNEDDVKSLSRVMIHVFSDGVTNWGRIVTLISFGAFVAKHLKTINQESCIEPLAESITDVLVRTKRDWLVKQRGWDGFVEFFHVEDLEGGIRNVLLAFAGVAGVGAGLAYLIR
Sequence of Lysine-specific demethylase 4C (Q9H3R0 whole entry): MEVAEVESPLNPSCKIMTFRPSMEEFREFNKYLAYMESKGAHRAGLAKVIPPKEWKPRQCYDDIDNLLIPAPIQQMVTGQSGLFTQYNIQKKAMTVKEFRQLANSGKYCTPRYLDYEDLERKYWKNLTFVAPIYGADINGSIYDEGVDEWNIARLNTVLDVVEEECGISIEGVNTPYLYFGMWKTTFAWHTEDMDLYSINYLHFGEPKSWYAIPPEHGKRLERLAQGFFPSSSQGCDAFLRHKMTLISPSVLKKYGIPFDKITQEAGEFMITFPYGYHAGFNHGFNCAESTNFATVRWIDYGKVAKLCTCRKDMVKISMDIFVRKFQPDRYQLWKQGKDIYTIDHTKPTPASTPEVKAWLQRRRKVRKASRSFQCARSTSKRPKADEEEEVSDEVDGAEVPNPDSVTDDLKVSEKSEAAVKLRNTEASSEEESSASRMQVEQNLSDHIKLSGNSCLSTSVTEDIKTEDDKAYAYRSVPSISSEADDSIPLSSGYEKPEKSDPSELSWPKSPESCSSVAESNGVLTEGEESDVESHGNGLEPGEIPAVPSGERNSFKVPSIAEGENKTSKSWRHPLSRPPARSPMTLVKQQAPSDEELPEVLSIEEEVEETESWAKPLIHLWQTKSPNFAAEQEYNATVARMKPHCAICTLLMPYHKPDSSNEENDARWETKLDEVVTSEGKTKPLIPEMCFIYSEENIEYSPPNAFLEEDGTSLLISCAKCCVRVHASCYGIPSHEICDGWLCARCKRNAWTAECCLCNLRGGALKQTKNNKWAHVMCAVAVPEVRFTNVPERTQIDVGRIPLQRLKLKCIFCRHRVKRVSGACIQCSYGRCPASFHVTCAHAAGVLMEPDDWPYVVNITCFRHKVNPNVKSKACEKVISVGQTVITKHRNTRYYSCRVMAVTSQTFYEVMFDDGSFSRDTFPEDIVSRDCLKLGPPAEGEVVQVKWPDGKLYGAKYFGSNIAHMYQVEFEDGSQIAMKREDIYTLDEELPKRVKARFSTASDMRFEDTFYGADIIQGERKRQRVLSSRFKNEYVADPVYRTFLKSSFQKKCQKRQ
Sequence of Serine/threonine-protein phosphatase PP1-alpha catalytic subunit (P62136 whole entry): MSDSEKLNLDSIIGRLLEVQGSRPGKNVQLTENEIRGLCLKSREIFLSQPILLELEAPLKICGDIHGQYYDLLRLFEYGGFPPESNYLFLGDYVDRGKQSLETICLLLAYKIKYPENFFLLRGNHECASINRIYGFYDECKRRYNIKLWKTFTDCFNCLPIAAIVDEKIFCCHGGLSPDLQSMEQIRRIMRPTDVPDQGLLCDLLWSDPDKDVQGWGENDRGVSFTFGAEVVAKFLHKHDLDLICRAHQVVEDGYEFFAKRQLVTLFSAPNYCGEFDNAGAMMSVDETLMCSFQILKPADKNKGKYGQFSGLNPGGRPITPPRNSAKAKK
Sequence of Endoribonuclease toxin MazF (P0AE70 whole entry): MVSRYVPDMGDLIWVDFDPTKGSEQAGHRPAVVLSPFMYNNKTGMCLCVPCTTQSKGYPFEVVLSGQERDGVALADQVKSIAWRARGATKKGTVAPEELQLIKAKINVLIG

Turning to `Oc1ccc(NC(=S)N=Nc2c(O)[nH]c3ccccc23)cc1`, the IC50 with CHO-K1 was > 66.2 µM (inactive).

The AC50 is the concentration giving half of the maximal activity seen. As to `N#Cc1c(N2CCCCC2)nc(N)c2c(N)nc(SCC(=O)O)cc12`, the values for the IC50 (in [1]; on SUMO-activating enzyme) were 44.1 µM (not active) and 3.92 µM (active), respectively. Besides, the AC50 in experiment [2] is 5.4 µM (active).

Take `CC1(C)Cc2ccccc2C2=NNC(=O)C2=N1`: the CC50 in experiment [3] was 31.2 µM (active). Moreover, in experiment [4], the IC50 is 14 µM (active).

For orientation: EC50 means the concentration needed to bring the measured effect to its halfway point. Regarding `O=[N+]([O-])c1ccc(Sc2cccc[n+]2[O-])c2nonc12`, the EC50 on Wee1-like protein kinase is > 1.84 µM (active); in experiment [5], > 99 µM (inactive).

Turning to `CCCC(=O)NC(c1ccc(C(C)C)cc1)c1ccc2cccnc2c1O` (stereo unspecified), the figures for the concentration giving a half-maximal response (EC50) (in the experiment on BJ; in “cells”; in [6]) were 2.3 µM (active), 3.8 µM (active) and 2.35 µM (active), respectively. Further, the IC50 in [7] is > 119 µM (inactive); with HEK293 [8] it was 24.8 µM (inactive); with HEK293 [9] it was 3.76 µM (active).

`Oc1c(Cl)cc(Cl)c(Cl)c1Cc1c(O)c(Cl)cc(Cl)c1Cl` [HEXACHLOROPHENE]: the IC50 in [10] was 27.4 µM (active); in [11] it was 14.8 µM (active); in experiment [12], 8.49 µM (active); in experiment [13] it was 15.8 µM (active); in experiment [14], 0.032 µM (active); in experiment [15] it was 0.0572 µM (active). The IC50 in experiment [16] is 0.46 µM (active).
